Values joined by “and” are separate entries in the source; they are usually repeats but may differ in a detail not shown here. Equal values may be shown once.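 Protocol summary: plate cells (96-well), add compound at 5 concentrations, incubate 48 h, interpolate endpoints linearly. GI50: concentration for 50% inhibition of growth. TGI: concentration producing complete growth inhibition.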
Columns and labels:
Experiment in all cases: NCI tumour cell line growth inhibition, 48 h
A498 renal = tested on: A498 renal
HCT-15 colon = tested on: HCT-15 colon
K-562 leukemia = tested on: K-562 leukemia
MOLT-4 leukemia = tested on: MOLT-4 leukemia
SF-539 CNS = tested on: SF-539 CNS
SK-MEL-5 melanoma = tested on: SK-MEL-5 melanoma
SR leukemia = tested on: SR leukemia
SW-620 colon = tested on: SW-620 colon
U251 CNS = tested on: U251 CNS
UO-31 renal = tested on: UO-31 renal

SMILES: CC(C)(C)[OH+][O-].[O-]c1ccc(Cl)cc1C=Nc1ccc(Cl)cc1[O-].[O]=[V]
- GI50 (A498 renal): 27.7 µM
- TGI (A498 renal): 64.2 µM
- GI50 (HCT-15 colon): 21.8 µM
- TGI (HCT-15 colon): > 100 µM
- GI50 (K-562 leukemia): 31.5 µM
- TGI (K-562 leukemia): > 100 µM
- GI50 (MOLT-4 leukemia): 17.5 µM
- TGI (MOLT-4 leukemia): > 100 µM
- GI50 (SF-539 CNS): 17.8 µM
- TGI (SF-539 CNS): 32.5 µM
- GI50 (SK-MEL-5 melanoma): 13 µM
- TGI (SK-MEL-5 melanoma): 26.3 µM
- GI50 (SR leukemia): 7.79 µM
- TGI (SR leukemia): > 100 µM
- GI50 (SW-620 colon): 19.6 µM
- TGI (SW-620 colon): 41.7 µM
- GI50 (U251 CNS): 20.2 µM
- TGI (U251 CNS): 69.2 µM
- GI50 (UO-31 renal): 13.2 µM
- TGI (UO-31 renal): 70.6 µM

SMILES: O=C1/C(=C/c2cccc([N+](=O)[O-])c2)COc2ccc(O)c(O)c21
- GI50 (A498 renal): 1.42 µM
- TGI (A498 renal): 3.26 µM
- GI50 (HCT-15 colon): 0.569 µM
- TGI (HCT-15 colon): 2.76 µM
- GI50 (K-562 leukemia): 0.506 µM
- TGI (K-562 leukemia): 7.22 µM
- GI50 (MOLT-4 leukemia): 2.12 µM
- TGI (MOLT-4 leukemia): 12.1 µM
- GI50 (SF-539 CNS): 1.61 µM
- TGI (SF-539 CNS): 3.57 µM
- GI50 (SK-MEL-5 melanoma): 1.55 µM
- TGI (SK-MEL-5 melanoma): 2.95 µM
- GI50 (SR leukemia): 0.364 µM
- TGI (SR leukemia): 7.94 µM
- GI50 (SW-620 colon): 1.14 µM
- TGI (SW-620 colon): 3.08 µM
- GI50 (U251 CNS): 1.17 µM
- TGI (U251 CNS): 2.64 µM
- GI50 (UO-31 renal): 1.07 µM
- TGI (UO-31 renal): 2.29 µM

SMILES: COc1cccc(N2C(=O)c3c(c4[nH]c5ccccc5c4c4ccc(C(C)(C)C)cc34)C2=O)c1
- TGI (A498 renal): > 100 µM
- TGI (HCT-15 colon): > 100 µM
- TGI (K-562 leukemia): > 100 µM
- TGI (MOLT-4 leukemia): > 100 µM
- TGI (SF-539 CNS): > 100 µM
- TGI (SK-MEL-5 melanoma): > 100 µM
- TGI (SR leukemia): > 100 µM
- TGI (SW-620 colon): > 100 µM
- TGI (U251 CNS): > 100 µM
- TGI (UO-31 renal): > 100 µM

SMILES: COc1cc(/C=C(/C)[N+](=O)[O-])ccc1O
- GI50 (A498 renal): 5.89 µM and 11.6 µM
- TGI (A498 renal): 13.7 µM and 23.8 µM
- GI50 (HCT-15 colon): 2.34 µM and 2 µM
- TGI (HCT-15 colon): 7.4 µM and 6.21 µM
- GI50 (K-562 leukemia): 1.47 µM
- TGI (K-562 leukemia): > 100 µM
- GI50 (MOLT-4 leukemia): 3.3 µM
- TGI (MOLT-4 leukemia): 9.14 µM
- GI50 (SF-539 CNS): 2 µM and 1.81 µM
- TGI (SF-539 CNS): 4 µM and 3.68 µM
- GI50 (SK-MEL-5 melanoma): 1.91 µM and 1.9 µM
- TGI (SK-MEL-5 melanoma): 3.92 µM and 3.57 µM
- GI50 (SR leukemia): 1.12 µM
- TGI (SR leukemia): 11.2 µM
- GI50 (SW-620 colon): 1.69 µM and 1.57 µM
- TGI (SW-620 colon): 3.67 µM and 3.11 µM
- GI50 (U251 CNS): 1.77 µM and 1.87 µM
- TGI (U251 CNS): 3.79 µM and 3.7 µM
- GI50 (UO-31 renal): 1.53 µM and 1.41 µM
- TGI (UO-31 renal): 3.19 µM and 3.39 µM

SMILES: C[Si](C)(C)C#CCO[Si](C)(C)C
- TGI (A498 renal): > 100 µM
- TGI (HCT-15 colon): > 100 µM
- TGI (K-562 leukemia): > 100 µM
- TGI (MOLT-4 leukemia): 58.4 µM
- TGI (SF-539 CNS): 52.3 µM
- TGI (SK-MEL-5 melanoma): > 100 µM
- TGI (SR leukemia): > 61.5 µM
- TGI (SW-620 colon): > 100 µM
- TGI (U251 CNS): > 100 µM
- TGI (UO-31 renal): > 100 µM

SMILES: O=C1C2C(C(=O)N1O)N(Cc1ccccc1)C(=O)N2Cc1ccccc1 (centres undefined)
- TGI (A498 renal): > 100 µM
- TGI (HCT-15 colon): > 100 µM
- TGI (K-562 leukemia): > 100 µM
- TGI (MOLT-4 leukemia): > 100 µM
- TGI (SF-539 CNS): > 100 µM
- TGI (SK-MEL-5 melanoma): > 100 µM
- TGI (SR leukemia): > 100 µM
- TGI (SW-620 colon): > 100 µM
- TGI (U251 CNS): > 100 µM
- TGI (UO-31 renal): > 100 µM

SMILES: CC1=CC=NN2C(=O)[C@H](C)C2C1 (some centres undefined)
- TGI (A498 renal): > 100 µM
- TGI (HCT-15 colon): > 100 µM
- TGI (K-562 leukemia): > 100 µM
- TGI (MOLT-4 leukemia): > 100 µM
- TGI (SF-539 CNS): > 100 µM
- TGI (SK-MEL-5 melanoma): > 100 µM
- TGI (SR leukemia): > 100 µM
- TGI (SW-620 colon): > 100 µM
- TGI (U251 CNS): > 100 µM
- TGI (UO-31 renal): > 100 µM

SMILES: CCOC(=N)CC(=O)Nc1ccc(Cl)cc1
- TGI (A498 renal): > 100 µM
- TGI (HCT-15 colon): > 100 µM
- TGI (K-562 leukemia): > 100 µM
- TGI (MOLT-4 leukemia): > 100 µM
- TGI (SF-539 CNS): > 100 µM
- TGI (SK-MEL-5 melanoma): > 100 µM
- TGI (SR leukemia): > 100 µM
- TGI (SW-620 colon): > 100 µM
- TGI (U251 CNS): > 100 µM
- TGI (UO-31 renal): > 100 µM

SMILES: CC(C)C[C@H](NC(=O)[C@H](Cc1ccccc1)n1ccc(N2CCCCC2)cc1=O)B(O)O
- GI50 (A498 renal): 0.127 µM
- TGI (A498 renal): 0.736 µM
- GI50 (HCT-15 colon): 1.61 µM
- TGI (HCT-15 colon): 22.1 µM
- GI50 (K-562 leukemia): 1.08 µM
- TGI (K-562 leukemia): > 100 µM
- GI50 (MOLT-4 leukemia): 0.308 µM
- TGI (MOLT-4 leukemia): > 100 µM
- GI50 (SF-539 CNS): 0.206 µM
- TGI (SF-539 CNS): 0.604 µM
- GI50 (SK-MEL-5 melanoma): 0.367 µM
- TGI (SK-MEL-5 melanoma): 3.11 µM
- GI50 (SR leukemia): 0.259 µM
- TGI (SR leukemia): 11.6 µM
- GI50 (SW-620 colon): 0.376 µM
- TGI (SW-620 colon): > 100 µM
- GI50 (U251 CNS): 1.18 µM
- TGI (U251 CNS): > 100 µM
- GI50 (UO-31 renal): 0.981 µM
- TGI (UO-31 renal): 15.4 µM

SMILES: Cc1ccc(C)c(NC(=O)C(=O)C(c2cnc3ccc([N+](=O)[O-])cc3n2)[N+](=O)[O-])c1 (centres undefined)
- TGI (A498 renal): 69 µM
- TGI (HCT-15 colon): > 100 µM
- TGI (K-562 leukemia): > 100 µM
- TGI (MOLT-4 leukemia): > 100 µM
- TGI (SF-539 CNS): > 100 µM
- TGI (SK-MEL-5 melanoma): > 100 µM
- TGI (SR leukemia): > 100 µM
- TGI (SW-620 colon): > 100 µM
- TGI (U251 CNS): > 100 µM
- TGI (UO-31 renal): > 100 µM

SMILES: CCNC(=O)C[C@@H]1N=C(c2ccc(Cl)cc2)c2cc(OC)ccc2-n2c(C)nnc21
- GI50 (A498 renal): 1.73 µM
- TGI (A498 renal): > 69.3 µM
- GI50 (HCT-15 colon): 3.77 µM
- TGI (HCT-15 colon): > 100 µM
- GI50 (K-562 leukemia): 4.18 µM
- TGI (K-562 leukemia): > 100 µM
- GI50 (MOLT-4 leukemia): > 44.2 µM
- TGI (MOLT-4 leukemia): > 100 µM
- GI50 (SF-539 CNS): 2.33 µM
- TGI (SF-539 CNS): > 100 µM
- TGI (SK-MEL-5 melanoma): > 100 µM
- GI50 (SR leukemia): 0.567 µM
- TGI (SR leukemia): > 100 µM
- GI50 (SW-620 colon): > 31 µM
- TGI (SW-620 colon): > 100 µM
- GI50 (U251 CNS): > 67.8 µM
- TGI (U251 CNS): > 100 µM
- GI50 (UO-31 renal): 0.659 µM
- TGI (UO-31 renal): > 100 µM

SMILES: CN/N=C(/Cc1occc(=O)c1O)C(=O)Nc1ccc(C)c(C)c1
- TGI (A498 renal): > 100 µM
- TGI (HCT-15 colon): > 100 µM
- TGI (K-562 leukemia): > 100 µM
- TGI (MOLT-4 leukemia): > 100 µM
- TGI (SF-539 CNS): > 100 µM
- TGI (SK-MEL-5 melanoma): > 100 µM
- TGI (SR leukemia): > 100 µM
- TGI (SW-620 colon): > 100 µM
- TGI (U251 CNS): > 100 µM
- TGI (UO-31 renal): > 100 µM

— PubChem BioAssay (NCI)
